Assay results taken from paper PMC7408396, “IPEC-J2 rMdr1a, a New Cell Line with Functional Expression of Rat P-glycoprotein Encoded by Rat Mdr1a for Drug Screening Purposes” (Pharmaceutics, 2020).

Experiments:
[1] = set-up: method as in PMID 27194478; details: murine / rodent animal models; cited from earlier work
human P-gp [2] = target: T1, human P-gp (Homo sapiens, UniProt P08183); set-up: expressed in transfected cells; host or cells: IPEC-J2 (porcine intestinal epithelial cells), previously established IPEC-J2 MDR1 line; method as in PMID 27194478; details: MDCK II MDR1 cell monolayers; cited from earlier work
human P-gp [3] = target: T1, human P-gp; details: IPEC-J2 MDR1 cells overexpressing human P-gp; cited from earlier work
P-gp (human MDR1) = target: T2, P-gp (human MDR1) (Homo sapiens, UniProt P08183); assay: Bidirectional transport across IPEC-J2 MDR1 cell monolayers; type: in vitro ADME; details: for Papp A→B at 120 min / Papp B→A at 120 min: pH 7.4, Figure 5, mean ± SEM; for Papp A→B at 120 min: read-out: apparent permeability A–B; for Papp B→A at 120 min: read-out: apparent permeability B–A; for efflux ratio at 120 min: pH 7.4, Figure 5 comparison series
T2 construct: expressed in transfected cells; host or cells: IPEC-J2 (porcine intestinal epithelial cells), previously established IPEC-J2 MDR1 line
Method: (§1) The cell monolayers were washed and pre-incubated in transport buffer consisting of 10 mM HEPES, 0.05% BSA and 0.038% sodium bicarbonate in HBSS pH 7.4 for 15 min at 37 °C on a shaking table (Unimax 2010, Heidolph, Schwabach, Germany) with a rotation of 75–90 rpm. The buffer was removed, and the transport experiments were initiated by the addition of donor solution containing radio-labelled compound in transport buffer in a concentration of 0.5 or 1 μ Ci/mL to either the apical or the basolateral chamber. […] Receiver samples were collected after 15, 30, 45, 60, 90 and 120 min from the basolateral (100 µL) or the apical chamber (50 µL), respectively.
(§2) Based on data from transport experiments, the apparent permeability coefficients (Papp) were calculated using Equation (1):(1) Papp = J/C0 = Qt/C0At where J denotes the steady-state flux (nmol·cm^−2·min^−1), C0 is the initial concentration in the donor compartment, A is the cross-sectional area of the permeable inserts (1.13 cm^2) and Qt represents the accumulated amount of drug in the receiver compartment at time t in minutes (corrected for the dilution arising from replacement of the sampled volume with blank transport buffer).

[4] = Bidirectional transport across IPEC-J2 wild-type (WT) cell monolayers; type: in vitro ADME, porcine; details: pig, pH 7.4, mean ± SEM
Method: as §1, §2

P-gp (rat Mdr1a) = assay: in vitro; details: for efflux ratio at 120 min: pH 7.4, efflux ratio, Figure 5 comparison series
mouse Mdr1a = test system: mouse Mdr1a; set-up: method as in PMID 17045309; details: mouse Mdr1a-transfected LLC-PK1 and MDCK monolayers; cited from earlier work
human P-gp [5] = target: T1, human P-gp; set-up: expressed in transfected cells; method as in PMID 17045309; details: cell monolayers overexpressing human P-gp; cited from earlier work
[6] = test system: P-gp (rat Mdr1a and human MDR1); assay: in vitro; details: human, pH 7.4, apparent permeability values (span over both directions), A–B and B–A, across both IPEC-J2 rMdr1a and IPEC-J2 MDR1 monolayers
IPEC-J2 mock cells [7] = assay: Puromycin selection of IPEC-J2 mock cells; type: cell-based, porcine; details: 2 μg/mL puromycin
Method: (§3) The rat Mdr1a cDNA, codon-optimized for expression in Sus scrofa, was synthesized by Geneart (Regensburg, Germany) and inserted in the pcDNA3.1 (+) cloning vector under control of a cytomegalovirus (CMV) promoter (see Supplemental Figure S1) and purchased from Geneart (Regensburg, Germany). […] Cells were seeded on permeable Transwell® inserts (1.13 cm^2 surface area, 0.4 µm pore size) at a density of 4 × 10^4 cells/insert and cultured for 15–18 days (with culture medium change three times per week) prior to experimentation.

rMDR1a-transfected cells = assay: Puromycin selection of rMdr1a-transfected IPEC-J2 cells; type: cell-based, porcine; details: 2 μg/mL puromycin
Method: as §3

rat Mdr1a P-gp = details: IPEC-J2 rMdr1a monolayers
rat Mdr1a = test system: rat Mdr1a; set-up: method as in PMID 16779700; details: LLC-PK1 cells transfected with rat Mdr1a; cited from earlier work
human MDR1 = test system: human MDR1; set-up: method as in PMID 16779700; details: LLC-PK1 cells transfected with human MDR1; cited from earlier work
IPEC-J2 mock cells [8] = assay: Bidirectional transport across IPEC-J2 mock cell monolayers (empty pcDNA 3.1(+) vector); details: 0.4 µM zosuquidar, Supplemental Figure S2
[9] = pH 7.4, apparent permeability A–B, IPEC-J2 rMdr1a monolayers, Figure 5, mean ± SEM

T2 sequence (P08183 whole entry): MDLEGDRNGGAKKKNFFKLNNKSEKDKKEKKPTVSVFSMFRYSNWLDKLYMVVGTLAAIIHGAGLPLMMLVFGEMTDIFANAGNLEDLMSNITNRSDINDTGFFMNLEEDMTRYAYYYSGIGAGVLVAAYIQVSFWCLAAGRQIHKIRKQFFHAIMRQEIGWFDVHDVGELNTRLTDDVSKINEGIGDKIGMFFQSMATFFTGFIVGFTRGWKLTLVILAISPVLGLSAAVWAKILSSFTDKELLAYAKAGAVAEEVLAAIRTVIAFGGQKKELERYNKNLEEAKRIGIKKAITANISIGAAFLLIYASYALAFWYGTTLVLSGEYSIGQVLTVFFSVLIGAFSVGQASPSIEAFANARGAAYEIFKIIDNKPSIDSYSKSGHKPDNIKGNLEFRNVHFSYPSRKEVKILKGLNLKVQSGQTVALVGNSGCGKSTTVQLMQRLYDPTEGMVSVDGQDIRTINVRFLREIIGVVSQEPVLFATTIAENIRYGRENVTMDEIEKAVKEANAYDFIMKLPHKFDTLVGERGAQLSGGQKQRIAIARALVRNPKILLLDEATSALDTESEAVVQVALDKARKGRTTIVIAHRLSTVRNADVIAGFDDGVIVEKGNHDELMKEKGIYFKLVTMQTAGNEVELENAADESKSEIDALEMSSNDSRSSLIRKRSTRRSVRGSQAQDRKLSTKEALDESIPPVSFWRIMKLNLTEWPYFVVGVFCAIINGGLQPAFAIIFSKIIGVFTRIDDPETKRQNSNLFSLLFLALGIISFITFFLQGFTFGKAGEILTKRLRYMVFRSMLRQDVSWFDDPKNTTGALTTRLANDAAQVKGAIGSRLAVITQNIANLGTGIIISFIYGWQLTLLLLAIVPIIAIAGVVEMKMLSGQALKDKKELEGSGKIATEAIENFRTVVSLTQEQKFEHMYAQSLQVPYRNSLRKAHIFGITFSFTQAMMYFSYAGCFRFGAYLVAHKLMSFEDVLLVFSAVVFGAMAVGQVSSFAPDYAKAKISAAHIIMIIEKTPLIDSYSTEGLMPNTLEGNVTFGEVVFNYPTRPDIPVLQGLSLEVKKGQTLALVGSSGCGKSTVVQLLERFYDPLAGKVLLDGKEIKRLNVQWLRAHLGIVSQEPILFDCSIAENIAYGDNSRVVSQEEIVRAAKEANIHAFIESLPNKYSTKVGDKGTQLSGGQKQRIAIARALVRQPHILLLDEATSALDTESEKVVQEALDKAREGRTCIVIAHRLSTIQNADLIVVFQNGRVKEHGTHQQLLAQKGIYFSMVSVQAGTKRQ
T1 sequence (P08183 whole entry): as above

In the case of `CNCC[C@@H](Oc1ccccc1C)c1ccccc1` [atomoxetine], the “Kp,uu (unbound drug concentration in CNS relative to plasma)” value [1] is given as > 2 and the “efflux ratio (ER)” value (human P-gp [2]) is given as > 3.

In the case of `CN(C)CCCC1(c2ccc(F)cc2)OCc2cc(C#N)ccc21` (stereo not shown) [citalopram], the P-gp substrate identification (human P-gp [3]) is listed as “P-gp substrates”.

Work on `C[C@H]1O[C@@H](O[C@H]2[C@@H](O)C[C@H](O[C@H]3[C@@H](O)C[C@H](O[C@H]4CC[C@@]5(C)[C@H](CC[C@@H]6[C@@H]5C[C@@H](O)[C@]5(C)[C@@H](C7=CC(=O)OC7)CC[C@]65O)C4)O[C@@H]3C)O[C@@H]2C)C[C@H](O)[C@@H]1O` [digoxin] yielded a Papp A→B at 120 min (P-gp (human MDR1)) of 0.28 ± 0.03 ×10⁻⁶ cm/s, a Papp A→B at 120 min ([4]; read-out: PA-B (apparent permeability, apical to basolateral)) of 0.05 ± 0.05 ×10⁻⁶ cm/s and a Papp B→A at 120 min ([4]; read-out: PB-A (apparent permeability, basolateral to apical)) of 0.13 ± 0.17 ×10⁻⁶ cm/s. It also gave a Papp at 120 min (P-gp (rat Mdr1a); pH 7.4, PB-A (apparent permeability in the efflux direction), late passages (14–16)) of 16 ± 1 ×10⁻⁶ cm/s, a Papp A→B at 120 min (P-gp (rat Mdr1a); [9]) of 0.35 ± 0.03 ×10⁻⁶ cm/s and a Papp A→B at 120 min (P-gp (rat Mdr1a); pH 7.4, permeability in the A–B direction, early passages (5–7)) of 0.37 ± 0.1 ×10⁻⁶ cm/s. It also gave a Papp A→B at 120 min (P-gp (rat Mdr1a); pH 7.4, permeability in the A–B direction, late passages (14–16)) of 0.68 ± 0.62 ×10⁻⁶ cm/s.

For `CC[C@@H](C(N)=O)N1CCCC1=O` [levetiracetam], the polarized transport (mouse Mdr1a) is given as “showed polarized transport” and the polarized transport (human P-gp [5]) is given as “no polarized transport could be observed”.

`OC[C@@H](O)[C@@H](O)[C@H](O)[C@H](O)CO` [mannitol] showed a Papp A→B at 120 min (P-gp (human MDR1)) of 0.25 ± 0.02 ×10⁻⁶ cm/s, a Papp B→A at 120 min (P-gp (human MDR1)) of 0.37 ± 0.04 ×10⁻⁶ cm/s and an efflux ratio at 120 min (P-gp (human MDR1)) of 1.4. It also gave a Papp at 120 min [6] of 0.25 to 0.44 ×10⁻⁶ cm/s, a Papp B→A at 120 min (P-gp (rat Mdr1a); pH 7.4) of 0.44 ± 0.11 ×10⁻⁶ cm/s and a Papp A→B at 120 min (P-gp (rat Mdr1a); [9]) of 0.33 ± 0.12 ×10⁻⁶ cm/s. The efflux ratio at 120 min (P-gp (rat Mdr1a); IPEC-J2 rMdr1a monolayers) was 1.5 and the Papp at 120 min (P-gp (rat Mdr1a); pH 7.4, paracellular permeability, IPEC-J2 rMdr1a monolayers, conclusion summary) was ~0.3 ×10⁻⁶ cm/s.

Work on `Cc1cc2c(s1)Nc1ccccc1N=C2N1CCN(C)CC1` [olanzapine] yielded a Papp A→B at 120 min (P-gp (human MDR1)) of 23 ± 4 ×10⁻⁶ cm/s, a Papp B→A at 120 min (P-gp (human MDR1)) of 40 ± 3 ×10⁻⁶ cm/s and a Papp A→B at 120 min (P-gp (rat Mdr1a); pH 7.4) of 24 ± 3 ×10⁻⁶ cm/s. For the same compound, the Papp B→A at 120 min (P-gp (rat Mdr1a); pH 7.4) was 44 ± 3 ×10⁻⁶ cm/s.

For `OCCN1CCN(CCCN2c3ccccc3Sc3ccc(Cl)cc32)CC1` [perphenazine], the “Kp,uu (unbound drug concentration in CNS relative to plasma)” value [1] is listed as > 2 and the “efflux ratio (ER)” value (human P-gp [2]) is listed as > 3.

In the case of `O=C1NC(=O)C(c2ccccc2)(c2ccccc2)N1` [phenytoin], the polarized transport (mouse Mdr1a) is given as “showed polarized transport” and the polarized transport (human P-gp [5]) is given as “no polarized transport could be observed”.

With `COc1ccc(C[C@H](N)C(=O)N[C@H]2[C@@H](O)[C@H](n3cnc4c(N(C)C)ncnc43)O[C@@H]2CO)cc1` [puromycin] the “cell survival under selection” value (IPEC-J2 mock cells [7]) was “died within three days” and the “cell survival under selection” value (rMDR1a-transfected cells) was “survived the treatment”.

In the case of `CN1CCN(CCCN2c3ccccc3Sc3ccc(C(F)(F)F)cc32)CC1` [trifluoperazine], the “Kp,uu (unbound drug concentration in CNS relative to plasma)” value [1] is given as > 2 and the “efflux ratio (ER)” value (human P-gp [2]) is given as > 3.

Compound `CC[C@]1(O)C[C@@H]2CN(CCc3c([nH]c4ccccc34)[C@@](C(=O)OC)(c3cc4c(cc3OC)N(C)[C@H]3[C@@](O)(C(=O)OC)[C@H](OC(C)=O)[C@]5(CC)C=CCN6CC[C@]43[C@@H]65)C2)C1` [vinblastine] has a Papp A→B at 120 min (P-gp (human MDR1)) of 1.5 ± 0.2 ×10⁻⁶ cm/s, a Papp B→A at 120 min (P-gp (human MDR1)) of 19 ± 6 ×10⁻⁶ cm/s and an efflux ratio at 120 min (P-gp (human MDR1)) of 12.4. The efflux ratio (rat Mdr1a P-gp; Figure 5 comparison series) was 13, the efflux ratio (rat Mdr1a) was 18.4 and the efflux ratio (human MDR1) was 12.5. It also gave a Papp B→A at 120 min (P-gp (rat Mdr1a); pH 7.4) of 20 ± 5 ×10⁻⁶ cm/s, a Papp A→B at 120 min (P-gp (rat Mdr1a); [9]) of 1.6 ± 0.2 ×10⁻⁶ cm/s and an efflux ratio at 120 min (P-gp (rat Mdr1a); IPEC-J2 rMdr1a monolayers) of 12.8.

In the case of `O[C@@H](COc1cccc2ncccc12)CN1CCN([C@@H]2c3ccccc3[C@@H]3[C@H](c4ccccc42)C3(F)F)CC1` [zosuquidar], the “effect on efflux transport of digoxin” value (rat Mdr1a P-gp; 0.4 µM zosuquidar) is reported as “completely blocked” and the “effect on digoxin transport” value (IPEC-J2 mock cells [8]) is reported as “did not affect digoxin transport”.
